The target in this assay is T1, TKS1-Cpn (group II chaperonin from Thermococcus strain KS-1) (Thermococcus sp. JCM 11816, UniProt P61112, D263C/C366S).
T1 construct: gene thsA; full-length recombinant chaperonin, purified to homogeneity, double-ring homo-oligomer
Kind of assay: diffracted X-ray tracking (DXT), single molecule. Type of assay: binding. The following applies: 2 mM ATP; MOPS pH 7.0, 100 mM KCl, 5 mM MgCl2, about 60 °C; immobilised on gold, gold nanocrystal label.

T1 sequence (P61112 whole entry D263C/C366S): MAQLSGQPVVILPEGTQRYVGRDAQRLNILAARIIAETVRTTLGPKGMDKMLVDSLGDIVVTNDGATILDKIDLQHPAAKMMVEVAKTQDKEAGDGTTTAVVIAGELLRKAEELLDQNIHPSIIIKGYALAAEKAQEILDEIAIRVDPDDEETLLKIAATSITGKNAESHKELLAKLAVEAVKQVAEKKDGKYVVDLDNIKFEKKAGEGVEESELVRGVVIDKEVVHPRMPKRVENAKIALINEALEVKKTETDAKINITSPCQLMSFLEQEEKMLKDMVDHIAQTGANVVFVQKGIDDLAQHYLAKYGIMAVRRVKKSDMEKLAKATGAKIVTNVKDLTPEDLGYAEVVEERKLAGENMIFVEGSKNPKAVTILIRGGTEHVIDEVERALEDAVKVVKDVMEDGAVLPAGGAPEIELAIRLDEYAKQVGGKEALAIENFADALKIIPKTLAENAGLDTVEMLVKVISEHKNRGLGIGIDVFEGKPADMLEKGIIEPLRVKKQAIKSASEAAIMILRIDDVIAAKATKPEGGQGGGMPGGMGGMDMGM

With `Nc1ncnc2c1ncn2[C@@H]1O[C@H](COP(=O)(O)OP(=O)(O)OP(=O)(O)O)[C@@H](O)[C@H]1O` [ATP], the “diffracted X-ray tracking (DXT), single molecule” value is on record as “Angular displacement in the χ direction was clearly activated by the addition of ATP”.

For the origin of these results see article PMC3666759, “ATP Dependent Rotational Motion of Group II Chaperonin Observed by X-ray Single Molecule Tracking” (PLoS ONE, 2013).
